Starred links: 1 amine or outer side, 2 acyl side, 3 side chain; linkers in the order of their positions; H or OH if unused. Non-standard residues stand in square brackets, D forms with d. Residues, ends and D or L forms follow the SMILES beside them. Groups on a side chain read outwards from the residue. *: point of attachment. X3 = CCCCCCCCCCCCCCCCCC(=O)N[C@@H](CCC(=O)N[C@@H](CCC(=O)N[C@@H](CCC(=O)NCCCOCCOCCOCCCNC(=O)CCC(=O)NCCCOCCOCCOCCCNC(=O)CCC(=O)NCCCOCCOCCOCCCN*)C(=O)O)C(=O)O)C(=O)O; X1 = CCCCCCCCCCCCCCCC(=O)N[C@@H](CCC(=O)N[C@@H](CCC(=O)N[C@@H](CCC(=O)NCCCOCCOCCOCCCNC(=O)CCC(=O)NCCCOCCOCCOCCCNC(=O)CCC(=O)NCCCOCCOCCOCCCN*)C(=O)O)C(=O)O)C(=O)O; X4 = CCCCCCCCCCCCCCCCCC(=O)N[C@@H](CCC(=O)N[C@@H](CCC(=O)N[C@@H](CCC(=O)NCCCOCCOCCOCCCNC(=O)CCC(=O)NCCCOCCOCCOCCCN*)C(=O)O)C(=O)O)C(=O)O; X9 = CCCCCCCCCCCCCCCC(=O)N[C@@H](CCC(=O)N[C@@H](CCC(=O)NCCCOCCOCCOCCCNC(=O)CCC(=O)NCCCOCCOCCOCCCN*)C(=O)O)C(=O)O; Suc = O=C(CCC(=O)[*:2])[*:1]; αMeK = C[C@](N)(CCCCN)C(=O)O; Aib = CC(C)(N)C(=O)O
Target: T1, RXFP1 (Homo sapiens, UniProt Q9HBX9)
T1 construct: OVCAR5 cells expressing endogenous RXFP1; endogenous in cells; host or cells: OVCAR5
T1 sequence (Q9HBX9 1-757): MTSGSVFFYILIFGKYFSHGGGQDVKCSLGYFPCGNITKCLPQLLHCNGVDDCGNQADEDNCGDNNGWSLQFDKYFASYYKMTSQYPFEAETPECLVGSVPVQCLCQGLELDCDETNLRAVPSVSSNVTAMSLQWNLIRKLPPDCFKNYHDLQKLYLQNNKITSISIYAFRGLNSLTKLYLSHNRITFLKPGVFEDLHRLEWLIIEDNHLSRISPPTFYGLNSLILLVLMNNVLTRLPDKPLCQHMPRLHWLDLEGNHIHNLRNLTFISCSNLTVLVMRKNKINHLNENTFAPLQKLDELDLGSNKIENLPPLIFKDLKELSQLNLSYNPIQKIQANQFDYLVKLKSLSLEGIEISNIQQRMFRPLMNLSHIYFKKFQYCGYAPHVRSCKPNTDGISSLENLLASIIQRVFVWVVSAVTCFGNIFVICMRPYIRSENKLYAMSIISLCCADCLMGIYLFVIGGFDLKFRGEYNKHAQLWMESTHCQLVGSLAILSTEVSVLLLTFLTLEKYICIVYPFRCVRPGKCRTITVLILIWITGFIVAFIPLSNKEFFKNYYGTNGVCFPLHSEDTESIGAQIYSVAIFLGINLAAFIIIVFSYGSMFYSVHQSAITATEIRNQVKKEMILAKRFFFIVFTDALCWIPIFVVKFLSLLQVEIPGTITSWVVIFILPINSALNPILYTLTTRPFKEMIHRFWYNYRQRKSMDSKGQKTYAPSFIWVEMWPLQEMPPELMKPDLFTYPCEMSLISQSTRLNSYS
Assay: OVCAR5 cAMP assay (HTRF)
Format: cell-based
Settings: for EC50: OVCAR 5 cells expressing endogenous RXFP1, cAMP readout; for Emax: OVCAR 5 cells, maximal cAMP relative to H2-relaxin
Description: OVCAR5 cells expressing endogenous RXFP1 were used to test RXP1 agonist properties of peptides of the invention, and in particular of the peptides of sequence SEQ ID NO: 1-97.
Since RXFP1 is a Gs coupled GPCR, cAMP was used as readout of RXFP1 activation.
Isobutyl Methyl Xanthine (IBMX) was used to inhibit phosphodiesterase activity facilitating cAMP measurements. HTRF (Homogenous Time Resolved Fluorescence) technology was used to detect cAMP due to its great sensitivity.
In summary, OVCAR5 were grown in regular medium (RPMI) containing 10% fetal calf serum (FCS) and 1% antibiotics (penicillin/streptomycin).
Before the experiments, cells were detached with accutase and incubated for 40 minutes at 37° C. with 1 mM (3-isobutyl-1-methylxanthine) IBMX.
Cells were then distributed in 384 black well plates containing increasing concentrations of the different peptides in a fix volume of medium (without FCS).
After an incubation of 30 min at 37° C. in an humid incubator in 5% CO2, the reaction was stopped by adding a fixed volume of a solution containing a lysis buffer and cAMP-D2 (cAMP labeled with the dye d2) and the anti cAMP antibody linked to Europium and used for cAMP detection.
Readout of the experiment were performed on a fluorimeter allowing HTRF measurement. Activation curves were generated by plotting the intracellular value of cAMP versus log 10 of the compound concentration.
The 50% activation concentration (EC50) was calculated by nonlinear regression using the sigmoidal dose-response (variable slope) equation with Prism 5 software.
Emax % was determined as the maximal intracellular value of cAMP for test compound (upper limit of cAMP vs concentration curve) divided by the maximal intracellular value of cAMP for H2-relaxin determined in the same test occasion multiplied by 100. Emax %=100×[cAMPtest cpd]/[cAMPH2-Rlx]

`CCCCCCCCCCCCCCCC(=O)N[C@@H](CCC(=O)N[C@@H](CCC(=O)N[C@@H](CCC(=O)NCCCOCCOCCOCCCNC(=O)CCC(=O)NCCCOCCOCCOCCCNC(=O)CCC(=O)NCCCOCCOCCOCCCNC(=O)CCC(=O)NCCCC[C@H](NC(=O)CNC(=O)[C@H](CCC(=O)O)NC(=O)C(C)(C)NC(=O)C(C)(C)NC(=O)[C@@H](NC(=O)[C@H](CCCCNC(C)=O)NC(=O)[C@H](C)NC(=O)[C@H](CCCNC(=N)N)NC(=O)[C@@H](NC(=O)[C@H](CC(C)C)NC(=O)[C@H](CCC(=O)O)NC(=O)[C@H](CCCNC(=N)N)NC(=O)CNC(=O)[C@H](CCC(=O)O)NC(=O)[C@H](CC(C)C)NC(C)=O)C(C)C)[C@@H](C)CC)C(=O)N[C@@H](CO)C(=O)N[C@H](C(=O)N[C@@H](Cc1c[nH]c2ccccc12)C(=O)N[C@@H](CO)C(=O)NC(C)(C)C(=O)N[C@@H](CCCNC(=N)N)C(=O)N[C@@H](CCCNC(=N)N)C(=O)N[C@@H](CCCCNC(C)=O)C(N)=O)[C@@H](C)O)C(=O)O)C(=O)O)C(=O)O` [compound 37] (Ac-LEGRELVRAK(Ac)I[Aib][Aib]EGK([Suc-X1])STWS[Aib]RRK(Ac)-NH2) was tested, and the EC50 was 5.6 nM and the Emax was 98%.

`CCCCCCCCCCCCCCCCCC(=O)N[C@@H](CCC(=O)N[C@@H](CCC(=O)N[C@@H](CCC(=O)NCCCOCCOCCOCCCNC(=O)CCC(=O)NCCCOCCOCCOCCCNC(=O)CCC(=O)NCCCOCCOCCOCCCNC(=O)CCC(=O)NCCCC[C@H](NC(=O)CNC(=O)[C@H](CCC(=O)O)NC(=O)C(C)(C)NC(=O)C(C)(C)NC(=O)[C@@H](NC(=O)[C@H](CCCCNC(C)=O)NC(=O)[C@H](C)NC(=O)[C@H](CCCNC(=N)N)NC(=O)[C@@H](NC(=O)[C@H](CCCCN)NC(=O)[C@H](CCC(=O)O)NC(=O)[C@H](CCCNC(=N)N)NC(=O)CNC(=O)[C@H](CCC(=O)O)NC(=O)[C@H](CC(C)C)NC(C)=O)C(C)C)[C@@H](C)CC)C(=O)N[C@@H](CO)C(=O)N[C@H](C(=O)N[C@@H](Cc1c[nH]c2ccccc12)C(=O)N[C@@H](CO)C(=O)N[C@@](C)(CCCCN)C(=O)N[C@@H](CCCNC(=N)N)C(=O)N[C@@H](C)C(=O)N[C@@H](CCCCNC(C)=O)C(N)=O)[C@@H](C)O)C(=O)O)C(=O)O)C(=O)O` [compound 30] (Ac-LEGREKVRAK(Ac)I[Aib][Aib]EGK([Suc-X3])STWS[αMeK]RAK(Ac)-NH2) was tested, and the EC50 was 0.21 nM and the Emax was 89%.

Work on `CCCCCCCCCCCCCCCC(=O)N[C@@H](CCC(=O)N[C@@H](CCC(=O)N[C@@H](CCC(=O)NCCCOCCOCCOCCCNC(=O)CCC(=O)NCCCOCCOCCOCCCNC(=O)CCC(=O)NCCCOCCOCCOCCCNC(=O)CCC(=O)NCCCC[C@H](NC(=O)CNC(=O)[C@H](CCC(=O)O)NC(=O)C(C)(C)NC(=O)C(C)(C)NC(=O)[C@@H](NC(=O)[C@H](CCCCNC(C)=O)NC(=O)[C@H](C)NC(=O)[C@H](CCCNC(=N)N)NC(=O)[C@@H](NC(=O)[C@H](CCCNC(=N)N)NC(=O)[C@H](CCC(=O)O)NC(=O)[C@H](CCCNC(=N)N)NC(=O)CNC(=O)[C@H](CCC(=O)O)NC(=O)[C@H](CC(C)C)NC(C)=O)C(C)C)[C@@H](C)CC)C(=O)N[C@@H](CO)C(=O)N[C@H](C(=O)N[C@@H](Cc1ccccc1)C(=O)N[C@@H](CO)C(=O)N[C@@](C)(CCCCN)C(=O)N[C@@H](CCCNC(=N)N)C(=O)N[C@@H](C)C(=O)N[C@@H](CCCCNC(C)=O)C(N)=O)[C@@H](C)O)C(=O)O)C(=O)O)C(=O)O` [compound 27] (Ac-LEGRERVRAK(Ac)I[Aib][Aib]EGK([Suc-X1])STFS[αMeK]RAK(Ac)-NH2) yielded an EC50 of 1.8 nM and an Emax of 98%.

Compound `CCCCCCCCCCCCCCCC(=O)N[C@@H](CCC(=O)N[C@@H](CCC(=O)N[C@@H](CCC(=O)NCCCOCCOCCOCCCNC(=O)CCC(=O)NCCCOCCOCCOCCCNC(=O)CCC(=O)NCCCOCCOCCOCCCNC(=O)CCC(=O)NCCCC[C@H](NC(=O)CNC(=O)[C@H](CCC(=O)O)NC(=O)C(C)(C)NC(=O)C(C)(C)NC(=O)[C@@H](NC(=O)[C@H](CCCCNC(C)=O)NC(=O)[C@H](C)NC(=O)[C@H](CCCNC(=N)N)NC(=O)[C@@H](NC(=O)[C@H](CCCCN)NC(=O)[C@H](CCC(=O)O)NC(=O)[C@H](CCCNC(=N)N)NC(=O)CNC(=O)[C@H](CCC(=O)O)NC(=O)[C@H](CC(C)C)NC(C)=O)C(C)C)[C@@H](C)CC)C(=O)N[C@@H](CO)C(=O)N[C@H](C(=O)N[C@@H](Cc1ccccc1)C(=O)N[C@@H](CO)C(=O)N[C@H](CCCCN)C(=O)N[C@@H](CCCNC(=N)N)C(=O)N[C@@H](C)C(=O)N[C@@H](CCCCNC(C)=O)C(N)=O)[C@@H](C)O)C(=O)O)C(=O)O)C(=O)O` [compound 36] (Ac-LEGREKVRAK(Ac)I[Aib][Aib]EGK([Suc-X1])STFS[dK]RAK(Ac)-NH2) has an EC50 of 3.6 nM and an Emax of 93%.

With `CCCCCCCCCCCCCCCCCC(=O)N[C@@H](CCC(=O)N[C@@H](CCC(=O)N[C@@H](CCC(=O)NCCCOCCOCCOCCCNC(=O)CCC(=O)NCCCOCCOCCOCCCNC(=O)CCC(=O)NCCCC[C@H](NC(=O)CNC(=O)[C@H](CCC(=O)O)NC(=O)C(C)(C)NC(=O)C(C)(C)NC(=O)[C@@H](NC(=O)[C@H](CCCCNC(C)=O)NC(=O)[C@H](C)NC(=O)[C@H](CCCNC(=N)N)NC(=O)[C@@H](NC(=O)[C@H](CCCCN)NC(=O)[C@H](CCC(=O)O)NC(=O)[C@H](CCCNC(=N)N)NC(=O)CNC(=O)[C@H](CCC(=O)O)NC(=O)[C@H](CC(C)C)NC(C)=O)C(C)C)[C@@H](C)CC)C(=O)N[C@@H](CO)C(=O)N[C@H](C(=O)N[C@@H](Cc1ccccc1)C(=O)N[C@@H](CO)C(=O)NC(C)(C)C(=O)N[C@@H](CCCNC(=N)N)C(=O)N[C@@H](CCCCN)C(=O)N[C@@H](CCCCNC(C)=O)C(N)=O)[C@@H](C)O)C(=O)O)C(=O)O)C(=O)O` [compound 60] (Ac-LEGREKVRAK(Ac)I[Aib][Aib]EGK([Suc-X4])STFS[Aib]RKK(Ac)-NH2) the EC50 was 0.15 nM and the Emax was 95%.

`CCCCCCCCCCCCCCCC(=O)N[C@@H](CCC(=O)N[C@@H](CCC(=O)NCCCOCCOCCOCCCNC(=O)CCC(=O)NCCCOCCOCCOCCCNC(=O)CCC(=O)NCCCC[C@H](NC(=O)CNC(=O)[C@H](CCC(=O)O)NC(=O)C(C)(C)NC(=O)C(C)(C)NC(=O)[C@@H](NC(=O)[C@H](CCCCNC(C)=O)NC(=O)[C@H](C)NC(=O)[C@H](CCCNC(=N)N)NC(=O)[C@@H](NC(=O)[C@H](CCCCN)NC(=O)[C@H](CCC(=O)O)NC(=O)[C@H](CCCNC(=N)N)NC(=O)CNC(=O)[C@H](CCC(=O)O)NC(=O)[C@H](CC(C)C)NC(C)=O)C(C)C)[C@@H](C)CC)C(=O)N[C@@H](CO)C(=O)N[C@H](C(=O)N[C@@H](Cc1ccccc1)C(=O)N[C@@H](CO)C(=O)N[C@@](C)(CCCCN)C(=O)N[C@@H](CCCNC(=N)N)C(=O)N[C@@H](C)C(=O)N[C@@H](CCCCNC(C)=O)C(N)=O)[C@@H](C)O)C(=O)O)C(=O)O` [compound 9] (Ac-LEGREKVRAK(Ac)I[Aib][Aib]EGK([Suc-X9])STFS[αMeK]RAK(Ac)-NH2) showed an EC50 of 0.7 nM and an Emax of 93%.

— patent publication US11725036B2, “Modified lipidated relaxin B chain peptides and their therapeutic use” (Sanofi, priority 2018, dated 2023)
